Laboratory results reported in paper PMC9266750, “Catalase Inhibition by Aminoalkanol Derivatives with Potential Anti-Cancer Activity—In Vitro and In Silico Studies Using Capillary Electrophoresis Method” (International Journal of Molecular Sciences, 2022).
Like-named read-outs stand apart in the source and are kept apart here.

Key:
CAT = settings: cited from earlier work
alkaline phosphatase = settings: cited from earlier work
acetylcholinesterase = settings: cited from earlier work
acid phosphatase = tested on: acid phosphatase; set-up: method as in PMID 34769193; settings: cited from earlier work
[1] = target: T1, Catalase from human erythrocytes (EC 1.11.1.6, CAT) (Homo sapiens, UniProt P04040); assay: Catalase (CAT) inhibition kinetics by capillary electrophoresis (hydrogen peroxide/guaiacol/tetraguaiacol); type: biochemical; settings: for Type of inhibition: from Km and Vmax versus control system; for IC50: from activity (%) versus inhibitor concentration plots, one value per compound; for Slope (slope angle of Lineweaver–Burk line): n = 6; for tetraguaiacol (TGCOL) concentration in the presence of inhibitor / guaiacol (GCOL) concentration in the presence of inhibitor: hydrogen peroxide 10 mM, 20.00 mM GCOL; for tetraguaiacol (TGCOL) concentration in the presence of inhibitor: without inhibitors 0.00 mM; for guaiacol (GCOL) concentration in the presence of inhibitor: without inhibitors 20.00 mM
T1 construct: Catalase from human erythrocytes (EC 1.11.1.6, CAT); purchased Sigma–Aldrich (Poznań, Poland); host or cells: human erythrocytes (natural source)
T1 sequence (P04040 2-527 limits assumed): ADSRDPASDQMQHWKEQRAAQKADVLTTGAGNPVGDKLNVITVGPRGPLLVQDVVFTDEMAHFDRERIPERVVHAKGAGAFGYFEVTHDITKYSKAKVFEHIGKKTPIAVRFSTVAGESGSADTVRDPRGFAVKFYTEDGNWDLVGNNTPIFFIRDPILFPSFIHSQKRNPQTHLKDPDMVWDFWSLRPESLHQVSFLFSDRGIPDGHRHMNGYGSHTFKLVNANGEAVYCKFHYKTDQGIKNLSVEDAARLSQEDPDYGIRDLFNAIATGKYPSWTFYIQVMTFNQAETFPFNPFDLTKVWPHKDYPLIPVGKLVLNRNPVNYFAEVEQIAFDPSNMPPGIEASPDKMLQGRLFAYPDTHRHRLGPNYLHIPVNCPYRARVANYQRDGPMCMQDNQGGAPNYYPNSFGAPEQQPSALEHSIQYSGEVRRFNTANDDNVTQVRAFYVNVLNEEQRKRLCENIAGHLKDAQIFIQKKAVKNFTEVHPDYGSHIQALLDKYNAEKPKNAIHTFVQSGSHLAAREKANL
Description: In this study, we used the capillary electrophoresis (CE) method developed by us to determine the tetraguaiacol complex as a product of the catalase-catalyzed reaction (CAT) (Table 1) in the presence of the enzyme, hydrogen peroxide (HPER) (as a substrate), guaiacol (GCOL) and inhibitors (I), (II), (III) and (IV) (Figure 2). Based on this method, we investigated changes in the concentration of guaiacol reacting with changes in the concentration of hydrogen peroxide depending on the activity of catalase and changes in the concentrations of the formed tetraguaiacol as the final reaction product. The developed CE technique made it possible to measure all the parameters thanks to the possibility of using three wavelengths simultaneously in one analysis. Investigations of kinetic parameters were based on mutual measurements of concentration changes between guaiacol (as the second reactant reacting with hydrogen peroxide) and tetraguaiacol as the final reaction product.
For the development of this method, we optimized the buffer pH, separating background electrolyte (BGE) concentration, wavelength, temperature, and voltage in accordance with the earlier procedure. […]. All these separation systems were tested to achieve the best separation parameters, resolution, and analysis time for all components in the reaction mixture. The best separation of tetraguaiacol, guaiacol, catalase (CAT) and compounds (I), (II), (III), (IV) was obtained with 100 mM phosphate buffer (pH 7.5). The measurements were taken at 214, 274 and 470 nm with a fused-silica capillary (effective length: 20 cm, diameter: 50 μm). The capillary temperature was 25 °C, which allowed the best resolution to be achieved. Separation was carried out at 20 kV. Each sample was added to the capillary under hydrodynamic injection. Average detection times for guaiacol (GCOL), compounds (I), (II), (III), (IV), tetraguaiacol (TGCOL) and CAT were […], respectively (Figure 2). […]. […]
Electrophoretic separations of catalase (CAT), hydrogen peroxide, guaiacol (GCOL) tetra guaiacol (TGCOL), and inhibitors (I), (II), (III) and (IV) of catalase, by CE was performed using 100 mM (NaH2PO4) phosphate buffer as a background electrolyte (BGE) adjusted with 100 mM sodium hydroxide to the pH = 7.5. The samples were injected under 5 psi pressure for 3 s. The experiments were performed under constant current conditions (97 μA). The separation temperature was 25 °C, and the detection wavelengths were set at 214, 274 and 470 nm. Before the assay, the capillary was conditioned according to the previously described procedure.
Sample mixtures containing catalase (CAT), hydrogen peroxide (HPER), guaiacol (GCOL), tetra guaiacol (TGCOL), and inhibitors (I), (II), (III) and (IV) were introduced automatically by pressure injection (with 5 psi pressure for 3 s on the sample solution). At the day’s end, vials with anode and a cathode buffer were emptied and a running buffer was filled again at the start of the next day before the analysis. The detector wavelength was fixed at 470 nm. Hydrogen peroxide was not detected at wavelength of 470 nm. The appropriate parameters for analyzing CAT, TGCOL and (I), (II), (III) and (IV) inhibitors were as follows: phosphate buffer (pH = 7.5) of 100 mM concentration, 25 °C temperature, and 20 kV voltage.
The CAT in the amount of 10 μg was dissolved in the 10 mL 100 mM phosphate buffer, pH 7.5 and divided into several portions, which were stored at −20 °C. One aliquot was thawed each day and the CAT activity was checked. For kinetic studies a catalase solution with a final concentration of 1 µg/mL was prepared. The working solutions of GCOL, TGCOL and HPER in appropriate concentrations were prepared immediately before use by dilution with the phosphate buffer according to the previously described procedure. […]

[2] = inhibitor 2.50 mM, without inhibitor 1.26 ± 0.02
[3] = inhibitor 2.50 mM, without inhibitor 23.31 ± 0.04

| SMILES | IC50 (CAT) [mM] | inhibition of enzymatic activity (alkaline phosphatase) | inhibition of enzymatic activity (acetylcholinesterase) | inhibition of enzymatic activity (acid phosphatase) | Type of inhibition [1] | IC50 [1] [mM] | Vmax [1, 2] [mM/min] | Slope (slope angle of Lineweaver–Burk line) [1, 3] | Vmax ([1]; inhibitor 5.00 mM) [mM/min] | Slope (slope angle of Lineweaver–Burk line) ([1]; inhibitor 5.00 mM) | Vmax ([1]; inhibitor 10.00 mM) [mM/min] | Slope (slope angle of Lineweaver–Burk line) ([1]; inhibitor 10.00 mM) | Vmax ([1]; inhibitor 15.00 mM) [mM/min] | Vmax ([1]; inhibitor 20.00 mM) [mM/min] | tetraguaiacol (TGCOL) concentration in the presence of inhibitor ([1]; inhibitor 20.00 mM) [mM] | guaiacol (GCOL) concentration in the presence of inhibitor ([1]; inhibitor 20.00 mM) [mM] | Slope (slope angle of Lineweaver–Burk line) ([1]; inhibitor 20.00 mM) | Slope (slope angle of Lineweaver–Burk line) ([1]; inhibitor 15.00 mM) | IC50 (CAT; specific catalase inhibitor) [mM] |
| --- | --- | --- | --- | --- | --- | --- | --- | --- | --- | --- | --- | --- | --- | --- | --- | --- | --- | --- | --- |
| NO [hydroxylamine] | 0.02 |  |  |  |  |  |  |  |  |  |  |  |  |  |  |  |  |  |  |
| CC(C)NCC(O)CN1C(=O)C2C(C1=O)C1(C)C(=O)C2(C)C(c2ccccc2)=C1c1ccccc1 (stereo not shown) [Compound (III)] |  | inhibited | inhibited | inhibited | Competitive | 10.3 ± 0.03 | 1.24 ± 0.07 | 25.09 ± 0.04 | 1.25 ± 0.08 | 25.84 ± 0.05 | 1.24 ± 0.07 | 28.60 ± 0.04 | 1.24 ± 0.09 | 1.25 ± 0.02 | 8.29 | 11.71 | 32.68 ± 0.02 |  |  |
| CN(C)CC(O)CN1C(=O)C2C(C1=O)C1(C)C(=O)C2(C)C(c2ccccc2)=C1c1ccccc1 (stereo not shown) [Compound (IV)] |  | inhibited | inhibited | inhibited | Competitive | 12.2 ± 0.06 | 1.25 ± 0.03 | 24.33 ± 0.06 | 1.24 ± 0.06 | 25.00 ± 0.05 | 1.24 ± 0.06 | 26.24 ± 0.04 | 1.23 ± 0.05 | 1.26 ± 0.02 | 4.39 | 15.61 | 29.27 ± 0.03 | 27.30 ± 0.05 |  |
| [N-]=[N+]=[N-] [sodium azide] | 0.025 |  |  |  |  |  |  |  |  |  |  |  |  |  |  |  |  |  |  |
| CCC12C(=O)C(CC)(C(c3ccccc3)=C1c1ccccc1)C1C(=O)N(CC(O)CN(C)C)C(=O)C12 (stereo not shown) [Compound (II)] |  | inhibited | inhibited | inhibited | Competitive | 12.8 ± 0.07 | 1.24 ± 0.06 | 23.70 ± 0.05 | 1.24 ± 0.06 | 24.24 ± 0.05 | 1.26 ± 0.03 | 25.30 ± 0.06 | 1.25 ± 0.04 | 1.24 ± 0.04 | 2.44 | 17.56 | 27.06 ± 0.05 | 26.00 ± 0.04 |  |
| Nc1nc[nH]n1 [3-Amino-1,2,4-triazole] |  |  |  |  |  |  |  |  |  |  |  |  |  |  |  |  |  |  | 6 |
| CCC12C(=O)C(CC)(C(c3ccccc3)=C1c1ccccc1)C1C(=O)N(CC(O)CNC(C)C)C(=O)C12 (stereo not shown) [Compound (I)] |  | inhibited | inhibited | inhibited | Competitive | 11.4 ± 0.05 | 1.25 ± 0.04 | 24.72 ± 0.05 | 1.24 ± 0.07 | 25.43 ± 0.05 | 1.25 ± 0.05 | 27.33 ± 0.06 | 1.24 ± 0.07 | 1.25 ± 0.05 | 5.86 | 14.14 | 30.75 ± 0.04 | 28.62 ± 0.06 |  |
